Measured values from publication PMC4291083, “Ex Vivo Characterization of a Novel Iodine-123-Labelled Aminomethylchroman as a Potential Agonist Ligand for SPECT Imaging of Dopamine D2/3 Receptors” (International Journal of Molecular Imaging, 2014).
Marks after values point to notes of the source that are not given here.

Test: Biodistribution studies in rats
Type: in vivo, Wistar rats
Conditions: for uptake ratio Frontal cortex/cereb. / uptake ratio Hippocampus/cereb. / uptake ratio Hypothalamus/cereb. / uptake ratio Midbrain/cereb. / uptake ratio Olfactory b./cereb. / uptake ratio Pons/medulla/cereb. / uptake ratio Striatum/cereb. / uptake ratio Thalamus/cereb. / uptake ratio Pituitary/cereb.: rats; for 123I radioactivity, Blood / 123I radioactivity, Cerebellum / 123I radioactivity, Fat: male rats
Procedure: [^123I]-1 (SA ≥ 37 MBq/nmol) was received after radiolabelling in an isotonic acetate (9% EtOH) buffer (pH 4.8). The solution was passed through a membrane filter (0.2 μm) and was diluted to the proper concentrations. Male Wistar rats (approximately 250 g body weight, obtained from Harlan/Charles River, Zeist, Netherlands) received an intravenous injection in the tail vein of approximately 3.7 MBq/0.4 mL buffer of [^123I]-1 under O2/CO2 anaesthesia. Distribution to the tissue was measured 15 min, 30 min, and 1, 2, 3, 4, and 24 h after the injection to determine the time course of uptake in several organs, including the brain. Four rats were killed at each time point via bleeding by heart puncture (to minimize contribution of blood activity) under O2/CO2 anaesthesia followed by cervical dislocation. Brain regions (cerebellum, frontal and prefrontal cortex, olfactory bulbs, pituitary, medulla with pons, midbrain, striatum, hypothalamus, hippocampus, and thalamus) and various peripheral tissues (heart, lung, liver, spleen, kidney, muscle, fat, and thymus) were quickly excised and weighted. The activity of [^123I] was assayed in a gamma counter, and data was corrected for decay and the amount of radioactivity was presented as percentage of the injected dose, multiplied by the body weight in kilograms, per gram tissue or blood. Selective uptake in the striatum was determined by calculating the ratio of radioactivity in the striatum in relation to that in the cerebellum, since the density of dopamine D2/3 receptor is negligible in this brain area in rats.

Oc1ccc2c(c1)O[C@@H](CNCc1ccc([123I])cc1)CC2 [[^123I]-1]
uptake ratio Frontal cortex/cereb. (15 min after i.v. injection): 2.962 ± 1.817
uptake ratio Hippocampus/cereb. (15 min after i.v. injection): 0.870 ± 0.303
uptake ratio Hypothalamus/cereb. (15 min after i.v. injection): 1.512 ± 0.546
uptake ratio Midbrain/cereb. (15 min after i.v. injection): 3.712 ± 4.715
uptake ratio Olfactory b./cereb. (15 min after i.v. injection): 0.431 ± 0.330
uptake ratio Pons/medulla/cereb. (15 min after i.v. injection): 1.470 ± 0.520
uptake ratio Striatum/cereb. (15 min after i.v. injection): 1.455 ± 1.265
uptake ratio Thalamus/cereb. (15 min after i.v. injection): 1.670 ± 0.908
uptake ratio Pituitary/cereb. (15 min after i.v. injection, only 1 sample): 1.157^*
uptake ratio Frontal cortex/cereb. (30 min after i.v. injection): 1.543 ± 0.142
uptake ratio Hippocampus/cereb. (30 min after i.v. injection): 1.479 ± 0.466
uptake ratio Hypothalamus/cereb. (30 min after i.v. injection): 1.139 ± 0.014
uptake ratio Midbrain/cereb. (30 min after i.v. injection): 1.144 ± 0.051
uptake ratio Olfactory b./cereb. (30 min after i.v. injection): 0.893 ± 0.067
uptake ratio Pituitary/cereb. (30 min after i.v. injection): 2.262 ± 0.233
uptake ratio Pons/medulla/cereb. (30 min after i.v. injection): 1.036 ± 0.212
uptake ratio Striatum/cereb. (30 min after i.v. injection): 1.294 ± 0.061
uptake ratio Thalamus/cereb. (30 min after i.v. injection): 1.325 ± 0.074
mean ratio of striatum/cerebellum binding (30 min to 4 h p.i., i.v., Wistar rats): about 1.3
uptake ratio Frontal cortex/cereb. (1 h after i.v. injection): 1.154 ± 0.095
uptake ratio Hippocampus/cereb. (1 h after i.v. injection): 1.390 ± 0.210
uptake ratio Hypothalamus/cereb. (1 h after i.v. injection): 1.189 ± 0.132
uptake ratio Midbrain/cereb. (1 h after i.v. injection): 1.207 ± 0.109
uptake ratio Olfactory b./cereb. (1 h after i.v. injection): 1.007 ± 0.050
uptake ratio Pituitary/cereb. (1 h after i.v. injection): 2.502 ± 0.883
uptake ratio Pons/medulla/cereb. (1 h after i.v. injection): 1.218 ± 0.109
uptake ratio Striatum/cereb. (1 h after i.v. injection): 1.246 ± 0.103
uptake ratio Thalamus/cereb. (1 h after i.v. injection): 1.243 ± 0.042
uptake ratio Frontal cortex/cereb. (2 h after i.v. injection): 1.145 ± 0.079
uptake ratio Hippocampus/cereb. (2 h after i.v. injection): 1.301 ± 0.047
uptake ratio Hypothalamus/cereb. (2 h after i.v. injection): 1.116 ± 0.085
uptake ratio Midbrain/cereb. (2 h after i.v. injection): 1.168 ± 0.080
uptake ratio Olfactory b./cereb. (2 h after i.v. injection): 1.125 ± 0.089
uptake ratio Pituitary/cereb. (2 h after i.v. injection): 4.399 ± 2.113
uptake ratio Pons/medulla/cereb. (2 h after i.v. injection): 1.205 ± 0.016
uptake ratio Striatum/cereb. (2 h after i.v. injection): 1.155 ± 0.069
uptake ratio Thalamus/cereb. (2 h after i.v. injection): 1.200 ± 0.067
uptake ratio Frontal cortex/cereb. (3 h after i.v. injection): 1.315 ± 0.360
uptake ratio Hippocampus/cereb. (3 h after i.v. injection): 1.294 ± 0.112
uptake ratio Hypothalamus/cereb. (3 h after i.v. injection): 1.326 ± 0.053
uptake ratio Midbrain/cereb. (3 h after i.v. injection): 1.224 ± 0.090
uptake ratio Olfactory b./cereb. (3 h after i.v. injection): 1.314 ± 0.150
uptake ratio Pituitary/cereb. (3 h after i.v. injection): 3.352 ± 1.490
uptake ratio Pons/medulla/cereb. (3 h after i.v. injection): 1.310 ± 0.114
uptake ratio Striatum/cereb. (3 h after i.v. injection): 1.331 ± 0.126
uptake ratio Thalamus/cereb. (3 h after i.v. injection): 1.582 ± 0.101
uptake ratio Frontal cortex/cereb. (4 h after i.v. injection): 0.865 ± 0.580
uptake ratio Hippocampus/cereb. (4 h after i.v. injection): 1.035 ± 0.114
uptake ratio Hypothalamus/cereb. (4 h after i.v. injection): 1.332 ± 0.103
uptake ratio Midbrain/cereb. (4 h after i.v. injection): 1.097 ± 0.086
uptake ratio Olfactory b./cereb. (4 h after i.v. injection): 1.333 ± 0.124
uptake ratio Pituitary/cereb. (4 h after i.v. injection): 3.570 ± 2.544
uptake ratio Pons/medulla/cereb. (4 h after i.v. injection): 1.214 ± 0.133
uptake ratio Striatum/cereb. (4 h after i.v. injection): 1.156 ± 0.080
uptake ratio Thalamus/cereb. (4 h after i.v. injection): 1.351 ± 0.175
uptake ratio Frontal cortex/cereb. (24 h after i.v. injection): 1.818 ± 0.372
uptake ratio Hippocampus/cereb. (24 h after i.v. injection): 1.031 ± 0.090
uptake ratio Hypothalamus/cereb. (24 h after i.v. injection): 1.989 ± 0.574
uptake ratio Midbrain/cereb. (24 h after i.v. injection): 1.426 ± 0.204
uptake ratio Olfactory b./cereb. (24 h after i.v. injection): 1.444 ± 0.163
uptake ratio Pituitary/cereb. (24 h after i.v. injection): 6.021 ± 0.577
uptake ratio Pons/medulla/cereb. (24 h after i.v. injection): 1.278 ± 0.211
uptake ratio Striatum/cereb. (24 h after i.v. injection): 2.023 ± 0.872
uptake ratio Thalamus/cereb. (24 h after i.v. injection): 2.473 ± 0.599
123I radioactivity, Blood (15 min after i.v. injection): 0.291 ± 0.190 %ID × kg/g
123I radioactivity, Blood (30 min after i.v. injection): 0.486 ± 0.291 %ID × kg/g
123I radioactivity, Blood (1 h after i.v. injection): 0.557 ± 0.087 %ID × kg/g
123I radioactivity, Blood (2 h after i.v. injection): 0.446 ± 0.105 %ID × kg/g
123I radioactivity, Blood (3 h after i.v. injection): 0.428 ± 0.082 %ID × kg/g
123I radioactivity, Blood (4 h after i.v. injection): 0.393 ± 0.136 %ID × kg/g
123I radioactivity, Blood (24 h after i.v. injection): 0.081 ± 0.049 %ID × kg/g
123I radioactivity, Cerebellum (15 min after i.v. injection): 0.858 ± 0.384 %ID × kg/g
123I radioactivity, Cerebellum (30 min after i.v. injection): 1.496 ± 0.478 %ID × kg/g
123I radioactivity, Cerebellum (1 h after i.v. injection): 0.627 ± 0.035 %ID × kg/g
123I radioactivity, Cerebellum (2 h after i.v. injection): 0.196 ± 0.037 %ID × kg/g
123I radioactivity, Cerebellum (3 h after i.v. injection): 0.178 ± 0.061 %ID × kg/g
123I radioactivity, Cerebellum (4 h after i.v. injection): 0.087 ± 0.043 %ID × kg/g
123I radioactivity, Cerebellum (24 h after i.v. injection): 0.014 ± 0.002 %ID × kg/g
123I radioactivity, Fat (15 min after i.v. injection): 3.080 ± 2.656 %ID × kg/g
123I radioactivity, Fat (30 min after i.v. injection): 0.674 ± 0.102 %ID × kg/g
123I radioactivity, Fat (1 h after i.v. injection): 0.509 ± 0.024 %ID × kg/g
123I radioactivity, Fat (2 h after i.v. injection): 0.365 ± 0.094 %ID × kg/g
